The subject of one assay is Puccinia triticina. The assay is described as follows: Wheat Brown Rust fungicidal activity (PUCCRT). The class given is in vivo. The note with it: for pest or weed control at 100 ppm: wheat, high volume; for pest or weed control at 121.5 g/ha: Low Volume Cereal Activity at 121.5 g/Ha. The procedure:
All fungicides were evaluated using the aforementioned method for their activity vs. all target diseases, unless stated otherwise. Wheat leaf blotch and brown rust activity were also evaluated using track spray applications, in which case the fungicides were formulated as EC formulations, containing 0.1% Trycol 5941 in the spray solutions. Wheat plants (variety Yuma) were grown from seed in a greenhouse in 50% mineral soil/50% soil-less Metro mix until the first leaf was fully emerged, with 7-10 seedlings per pot. These plants were inoculated with an aqueous spore suspension of Zymoseptoria tritici either prior to or after fungicide treatments. After inoculation the plants were kept in 100% relative humidity (one day in a dark dew chamber followed by two to three days in a lighted dew chamber at 20° C.) to permit spores to germinate and infect the leaf. The plants were then transferred to a greenhouse set at 20° C. for disease to develop. When disease symptoms were fully expressed on the 1st leaves of untreated plants, infection levels were assessed on a scale of 0 to 100 percent disease severity. Percent disease control was calculated using the ratio of disease severity on treated plants relative to untreated plants. Wheat plants (variety Yuma) were grown from seed in a greenhouse in 50% mineral soil/50% soil-less Metro mix until the first leaf was fully emerged, with 7-10 seedlings per pot. These plants were inoculated with an aqueous spore suspension of Puccinia triticina either prior to or after fungicide treatments. […] The plants were then transferred to a greenhouse set at 24° C. for disease to develop. Fungicide formulation, application and disease assessment followed the procedures as described in the Example A.

The test system of another assay is Zymoseptoria tritici. Description: Leaf Blotch of Wheat fungicidal activity (SEPTTR). The class given is in vivo. The note with it: for pest or weed control at 100 ppm: wheat, high volume; for pest or weed control at 121.5 g/ha: Low Volume Cereal Activity at 121.5 g/Ha. The procedure: All fungicides were evaluated using the aforementioned method for their activity vs. all target diseases, unless stated otherwise. Wheat leaf blotch and brown rust activity were also evaluated using track spray applications, in which case the fungicides were formulated as EC formulations, containing 0.1% Trycol 5941 in the spray solutions. Wheat plants (variety Yuma) were grown from seed in a greenhouse in 50% mineral soil/50% soil-less Metro mix until the first leaf was fully emerged, with 7-10 seedlings per pot. These plants were inoculated with an aqueous spore suspension of Zymoseptoria tritici either prior to or after fungicide treatments. After inoculation the plants were kept in 100% relative humidity (one day in a dark dew chamber followed by two to three days in a lighted dew chamber at 20° C.) to permit spores to germinate and infect the leaf. The plants were then transferred to a greenhouse set at 20° C. for disease to develop. When disease symptoms were fully expressed on the 1st leaves of untreated plants, infection levels were assessed on a scale of 0 to 100 percent disease severity. Percent disease control was calculated using the ratio of disease severity on treated plants relative to untreated plants.

Where [1] appears, read: 24 h, 1 Day Protectant, read-out: PUCCRT 1DP (Wheat Brown Rust, 1 Day Protectant).
[2] abbreviates: 72 h, 3 Day Curative, read-out: PUCCRT 3DC (Wheat Brown Rust, 3 Day Curative).
Setting [3] is: 24 h, 1 Day Protectant, read-out: SEPTTR 1DP (Wheat Leaf Blotch, 1 Day Protectant).
[4] abbreviates: 72 h, 3 Day Curative, read-out: SEPTTR 3DC (Wheat Leaf Blotch, 3 Day Curative).

Molecules are shown by their SMILES. Where two headings read alike, the source gives them in different places.

`COc1ccnc(C(=O)N[C@@H](C)C(=O)O[C@@H](C)[C@H](Oc2ccccc2)c2ccc(F)cc2Oc2ccccc2)c1O` [Example 178]: the pest or weed control at 100 ppm was over 80% with Puccinia triticina (24 h, 1 Day Protectant, read-out: PUCCRT 1DP % Control rating); under 80% in the assay with Puccinia triticina (72 h, 3 Day Curative, read-out: PUCCRT 3DC % Control rating); over 80% in the assay on Zymoseptoria tritici (24 h, 1 Day Protectant, read-out: SEPTTR 1DP % Control rating); over 80% in the assay on Zymoseptoria tritici (72 h, 3 Day Curative, read-out: SEPTTR 3DC % Control rating).
With `COc1ccnc(C(=O)N[C@@H](Cc2ccccc2)C(=O)O[C@@H](C)[C@H](Oc2cccc(F)c2)c2ccccc2)c1OCOC(C)=O` [Example 189], the pest or weed control at 121.5 g/ha was over 80% with Puccinia triticina (setting [1]), under 80% in the assay on Puccinia triticina (setting [2]), under 80% in the assay on Zymoseptoria tritici (setting [3]) and under 0% in the assay with Zymoseptoria tritici (setting [4]).
As for `COc1ccnc(C(=O)N[C@@H](Cc2ccccc2)C(=O)O[C@@H](C)[C@H](Oc2cccc(F)c2)c2ccccc2)c1OC(C)=O` [Example 190], the pest or weed control at 121.5 g/ha with Puccinia triticina (setting [1]) is over 80%; in the assay with Puccinia triticina (setting [2]) it was under 80%; in the assay with Zymoseptoria tritici (setting [3]), under 80%; in the assay with Zymoseptoria tritici (setting [4]) it was under 0%.
On to `COc1ccnc(C(=O)N[C@@H](C)C(=O)O[C@@H](C)[C@H](Oc2cc(F)ccc2F)c2ccccc2)c1OCOC(C)=O` [Example 191], for which the pest or weed control at 121.5 g/ha with Puccinia triticina (setting [1]) was over 80%; in the assay on Puccinia triticina (setting [2]), over 80%; in the assay on Zymoseptoria tritici (setting [3]), under 0%; in the assay with Zymoseptoria tritici (setting [4]) it was under 80%.
With `COc1ccnc(C(=O)N[C@@H](C)C(=O)O[C@@H](C)[C@H](Oc2cc(F)ccc2F)c2ccccc2)c1OC(C)=O` [Example 192], the pest or weed control at 121.5 g/ha in the assay with Puccinia triticina (setting [1]) was over 80%; with Puccinia triticina (setting [2]), over 80%; in the assay on Zymoseptoria tritici (setting [3]), over 80%; in the assay with Zymoseptoria tritici (setting [4]) it was under 80%.
With `CC[C@H](NC(=O)c1nccc(OC)c1OCOC(C)=O)C(=O)O[C@@H](C)[C@H](Oc1cc(F)ccc1F)c1ccccc1` [Example 193], the pest or weed control at 121.5 g/ha is over 80% in the assay on Puccinia triticina (setting [1]), over 80% in the assay on Puccinia triticina (setting [2]), under 80% with Zymoseptoria tritici (setting [3]) and under 0% in the assay with Zymoseptoria tritici (setting [4]).
Turning to `CC[C@H](NC(=O)c1nccc(OC)c1OC(C)=O)C(=O)O[C@@H](C)[C@H](Oc1cc(F)ccc1F)c1ccccc1` [Example 194], the pest or weed control at 121.5 g/ha in the assay with Puccinia triticina (setting [1]) is over 80%; with Puccinia triticina (setting [2]), under 80%; in the assay with Zymoseptoria tritici (setting [3]), under 80%; in the assay on Zymoseptoria tritici (setting [4]), under 0%.
With `COc1ccnc(C(=O)N[C@@H](C)C(=O)O[C@@H](C)[C@H](Oc2ccc(C(F)(F)F)cc2)c2ccccc2)c1OCOC(C)=O` [Example 195], the pest or weed control at 121.5 g/ha with Puccinia triticina (setting [1]) is over 80%; in the assay on Puccinia triticina (setting [2]) it was under 80%; with Zymoseptoria tritici (setting [3]) it was over 80%; in the assay on Zymoseptoria tritici (setting [4]) it was over 80%.
With `COc1ccnc(C(=O)N[C@@H](C)C(=O)O[C@@H](C)[C@H](Oc2ccc(C(F)(F)F)cc2)c2ccccc2)c1OC(C)=O` [Example 196], the pest or weed control at 121.5 g/ha is over 80% in the assay with Puccinia triticina (setting [1]), under 80% in the assay with Puccinia triticina (setting [2]), over 80% in the assay with Zymoseptoria tritici (setting [3]) and over 80% in the assay with Zymoseptoria tritici (setting [4]).
For `COc1ccnc(C(=O)N[C@H](C(=O)O[C@@H](C)[C@H](Oc2ccc(C(F)(F)F)cc2)c2ccccc2)C(C)C)c1OCOC(C)=O` [Example 197], the pest or weed control at 121.5 g/ha with Puccinia triticina (setting [1]) was over 80%; with Puccinia triticina (setting [2]), under 80%; with Zymoseptoria tritici (setting [3]), over 80%; with Zymoseptoria tritici (setting [4]) it was under 0%.
With `COc1ccnc(C(=O)N[C@H](C(=O)O[C@@H](C)[C@H](Oc2ccc(C(F)(F)F)cc2)c2ccccc2)C(C)C)c1OC(C)=O` [Example 198], the pest or weed control at 121.5 g/ha is over 80% in the assay on Puccinia triticina (setting [1]), under 80% with Puccinia triticina (setting [2]), over 80% in the assay with Zymoseptoria tritici (setting [3]) and under 0% with Zymoseptoria tritici (setting [4]).
For the compound `COc1ccnc(C(=O)N[C@@H](C)C(=O)O[C@@H](C)[C@H](Oc2ccc(Cl)cc2Cl)c2ccccc2)c1OCOC(C)=O` [Example 199], the pest or weed control at 121.5 g/ha was over 80% in the assay with Puccinia triticina (setting [1]), under 80% in the assay on Puccinia triticina (setting [2]), over 80% with Zymoseptoria tritici (setting [3]) and over 80% in the assay on Zymoseptoria tritici (setting [4]).
`COc1ccnc(C(=O)N[C@@H](C)C(=O)O[C@@H](C)[C@H](Oc2ccc(Cl)cc2Cl)c2ccccc2)c1OC(C)=O` [Example 200]: the pest or weed control at 121.5 g/ha in the assay on Puccinia triticina (setting [1]) was over 80%; in the assay on Puccinia triticina (setting [2]), under 80%; in the assay on Zymoseptoria tritici (setting [3]), over 80%; with Zymoseptoria tritici (setting [4]), over 80%.
On to `COc1ccnc(C(=O)N[C@@H](C)C(=O)O[C@@H](C)[C@H](Oc2ccc(Cl)cc2)c2ccccc2)c1OCOC(C)=O` [Example 201], for which the pest or weed control at 121.5 g/ha in the assay on Puccinia triticina (setting [1]), with Puccinia triticina (setting [2]), with Zymoseptoria tritici (setting [3]) and with Zymoseptoria tritici (setting [4]) was over 80% each time.
For `COc1ccnc(C(=O)N[C@@H](C)C(=O)O[C@@H](C)[C@H](Oc2cccc(Cl)c2)c2ccccc2)c1OC(C)=O` [Example 203], the pest or weed control at 121.5 g/ha in the assay with Puccinia triticina (setting [1]) is over 80%; with Puccinia triticina (setting [2]), under 80%; in the assay with Zymoseptoria tritici (setting [3]), over 80%; in the assay on Zymoseptoria tritici (setting [4]) it was over 80%.
For `COc1ccnc(C(=O)N[C@@H](C)C(=O)O[C@@H](C)[C@H](Oc2cc(F)cc(Cl)c2)c2ccccc2)c1OCOC(C)=O` [Example 206], the pest or weed control at 121.5 g/ha with Puccinia triticina (setting [1]) is over 80%; in the assay with Puccinia triticina (setting [2]), under 80%; in the assay with Zymoseptoria tritici (setting [3]), over 80%; in the assay on Zymoseptoria tritici (setting [4]) it was over 80%.
As for `CC[C@H](NC(=O)c1nccc(OC)c1OCOC(C)=O)C(=O)O[C@@H](C)[C@H](Oc1cc(F)cc(Cl)c1)c1ccccc1` [Example 208], the pest or weed control at 121.5 g/ha with Puccinia triticina (setting [1]) is over 80%; in the assay on Puccinia triticina (setting [2]) it was under 80%; with Zymoseptoria tritici (setting [3]), over 80%; in the assay with Zymoseptoria tritici (setting [4]), over 80%.
As to `CC[C@H](NC(=O)c1nccc(OC)c1OC(C)=O)C(=O)O[C@@H](C)[C@H](Oc1cc(F)cc(Cl)c1)c1ccccc1` [Example 209], the pest or weed control at 121.5 g/ha with Puccinia triticina (setting [1]) is over 80%; with Puccinia triticina (setting [2]), under 80%; in the assay on Zymoseptoria tritici (setting [3]), over 80%; in the assay with Zymoseptoria tritici (setting [4]), over 80%.
Turning to `COc1ccnc(C(=O)N[C@@H](C)C(=O)O[C@@H](C)[C@@H](Oc2ccccc2)c2cccs2)c1OC(C)=O` [Example 210], the pest or weed control at 121.5 g/ha in the assay on Puccinia triticina (setting [1]), with Puccinia triticina (setting [2]), with Zymoseptoria tritici (setting [3]) and in the assay on Zymoseptoria tritici (setting [4]) was under 80% each time.
Consider `COc1ccnc(C(=O)N[C@@H](C)C(=O)O[C@@H](C)[C@@H](Oc2ccccc2)c2cccnc2)c1OC(C)=O` [Example 211], for which the pest or weed control at 121.5 g/ha with Puccinia triticina (setting [1]) is under 0%; in the assay with Puccinia triticina (setting [2]) it was under 80%; with Zymoseptoria tritici (setting [3]) it was under 0%; in the assay on Zymoseptoria tritici (setting [4]), under 80%.
In the case of `COc1ccnc(C(=O)N[C@@H](C)C(=O)O[C@@H](C)C(Oc2ccccc2)c2nccs2)c1OC(C)=O` (stereo partly shown) [Example 212], the pest or weed control at 121.5 g/ha in the assay on Puccinia triticina (setting [1]) is under 80%; in the assay with Puccinia triticina (setting [2]), over 80%; in the assay on Zymoseptoria tritici (setting [3]), under 0%; in the assay with Zymoseptoria tritici (setting [4]), under 80%.
Regarding `COc1ccnc(C(=O)N[C@@H](C)C(=O)O[C@@H](C)C(Oc2ccccc2)c2nccs2)c1OCOC(C)=O` (stereo partly shown) [Example 213], the pest or weed control at 121.5 g/ha with Puccinia triticina (setting [1]) was over 80%; in the assay with Puccinia triticina (setting [2]), over 80%; with Zymoseptoria tritici (setting [3]), under 0%; in the assay with Zymoseptoria tritici (setting [4]), under 80%.

The record behind these values is patent US20180002288A1, “USE OF PICOLINAMIDES AS FUNGICIDES” (DOW AGROSCIENCES LLC, priority 2014, published 2018).
